From US9351955B2, “Compounds and pharmaceutical compositions thereof for the treatment of cystic fibrosis” (Galapagos NV, priority 2013, dated 2016)

Biological target: T1, CFTR ΔF508 mutant (Homo sapiens, UniProt P13569, DEL508-508)
T1 construct: expressed in transfected cells; host or cells: CFBE41o- (adenoviral transduction)
Assay: YFP-halide influx assay for the CFTR-ΔF508 mutation (384 well, CFBE41o- cells, FDSS/μCell)
Format: cell-based
Conditions: forskolin 10.67 μM, fluorescence after 36 seconds, read-out: EC50 measured by YFP-halide influx assay for the CFTR-ΔF508
Text: 6.2. YFP-Halide Influx Assay for the CFTR-ΔF508 Mutation
The YFP halide influx assay measures the functionality of the cystic fibrosis Transmembrane Conductance regulator (CFTR) channels in the cystic fibrosis bronchial epithelium cell line CFBE41o-. The assay is used to evaluate the capacity of compounds to increase the open probability of existing CFTR channels in the membrane. It makes use of the observation that the yellow fluorescent protein (YFP) variant YFP H148Q, I152L has its fluorescence substantially quenched by halide ions like Cl— and I— (Galietta et al., 2001; Nagai et al., 2002).
For this purpose, CFBE410-cells are seeded in 384 well plates (3000 CFBE cells/well). One day after seeding, the CFBE cells are transduced with adenoviral vectors that direct the expression of the CFTR ΔF508 mutant and of the YFP reporter. Cells are incubated at 27° C., 5% CO2 for 24 hours so as to allow for the proper folding and migration to the membrane of the CFTR channel or treated with a CFTR modulator during 24 h at 37° C.
The I— induced quenching of fluorescence is recorded […] immediately after injection of I— for 2 min on an FDSS/μCell (Hamamatsu). The capacity of a compound to increase the channel opening is directly correlated with the decrease in fluorescence, and is expressed as (1−(fluorescence after 36 seconds (F)/fluorescence before injection (F0))) and an EC50 can be derived from a (1−F/F0) vs compound concentration plot.

T1 sequence (P13569 with tags, fused parts or gaps DEL508-508): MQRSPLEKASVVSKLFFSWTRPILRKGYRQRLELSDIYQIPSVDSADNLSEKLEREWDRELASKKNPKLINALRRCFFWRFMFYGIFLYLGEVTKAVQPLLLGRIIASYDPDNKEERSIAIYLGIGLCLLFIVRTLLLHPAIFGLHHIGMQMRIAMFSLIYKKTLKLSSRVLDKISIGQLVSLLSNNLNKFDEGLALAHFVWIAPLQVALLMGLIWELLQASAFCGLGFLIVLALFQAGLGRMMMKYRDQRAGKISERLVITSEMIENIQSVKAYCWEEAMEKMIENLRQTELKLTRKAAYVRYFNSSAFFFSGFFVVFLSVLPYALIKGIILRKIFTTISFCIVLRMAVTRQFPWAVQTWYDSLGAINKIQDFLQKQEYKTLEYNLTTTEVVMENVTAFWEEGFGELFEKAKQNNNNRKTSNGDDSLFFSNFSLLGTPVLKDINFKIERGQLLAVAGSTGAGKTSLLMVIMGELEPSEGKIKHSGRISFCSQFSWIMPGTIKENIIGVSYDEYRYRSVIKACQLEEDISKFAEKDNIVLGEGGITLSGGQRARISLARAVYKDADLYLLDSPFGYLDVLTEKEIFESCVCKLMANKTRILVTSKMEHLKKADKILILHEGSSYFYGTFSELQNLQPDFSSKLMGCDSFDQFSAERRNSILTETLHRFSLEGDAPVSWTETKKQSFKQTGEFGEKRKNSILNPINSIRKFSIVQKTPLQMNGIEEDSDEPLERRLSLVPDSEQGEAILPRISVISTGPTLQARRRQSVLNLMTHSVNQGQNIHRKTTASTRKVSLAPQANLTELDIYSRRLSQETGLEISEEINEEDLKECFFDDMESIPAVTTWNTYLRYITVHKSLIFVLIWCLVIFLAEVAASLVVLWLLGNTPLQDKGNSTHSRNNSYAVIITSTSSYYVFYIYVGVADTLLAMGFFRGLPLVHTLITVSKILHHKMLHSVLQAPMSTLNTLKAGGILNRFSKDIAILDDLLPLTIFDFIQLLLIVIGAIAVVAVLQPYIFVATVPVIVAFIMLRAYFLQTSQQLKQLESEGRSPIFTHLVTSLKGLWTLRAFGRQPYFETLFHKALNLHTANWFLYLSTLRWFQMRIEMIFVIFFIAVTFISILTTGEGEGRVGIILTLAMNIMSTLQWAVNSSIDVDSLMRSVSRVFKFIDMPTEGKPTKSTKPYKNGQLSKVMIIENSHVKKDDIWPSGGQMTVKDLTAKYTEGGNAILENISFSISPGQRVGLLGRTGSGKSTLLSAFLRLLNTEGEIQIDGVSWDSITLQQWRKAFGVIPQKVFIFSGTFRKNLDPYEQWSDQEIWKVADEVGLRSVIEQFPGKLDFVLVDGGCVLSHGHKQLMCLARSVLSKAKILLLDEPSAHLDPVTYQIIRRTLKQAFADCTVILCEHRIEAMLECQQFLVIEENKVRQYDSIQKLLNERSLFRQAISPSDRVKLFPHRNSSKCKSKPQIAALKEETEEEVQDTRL

**Q.** CC1(C)Cc2c(sc(NC(=O)C3CC3F)c2C(N)=O)C(C)(C)O1 (single isomer, unassigned) [Compound 43, Cis-2-[[2-fluorocyclopropanecarbonyl]amino]-5,5,7,7-tetramethyl-4H-thieno[2,3-c]pyran-3-carboxamide] was tested. Which EC50 did it give?
**A.** The EC50 was 495 nM.

**Q.** CC1(C)Cc2c(sc(NC(=O)C3CC3F)c2C(N)=O)C(C)(C)O1 (single isomer, unassigned) [Compound 44, Cis-2-[[2-fluorocyclopropanecarbonyl]amino]-5,5,7,7-tetramethyl-4H-thieno[2,3-c]pyran-3-carboxamide] was tested. Which EC50 did it give?
**A.** Its EC50 is 276 nM.

**Q.** Which EC50 does the source give for COCC(C)(O)C(=O)Nc1sc2c(c1C(N)=O)CC(C)(C)OC2(C)C (single isomer, unassigned) [Compound 165, 2-[[2-hydroxy-3-methoxy-2-methyl-propanoyl]amino]-5,5,7,7-tetramethyl-4H-thieno[2,3-c]pyran-3-carboxamide] here?
**A.** The EC50 was 145 nM.

**Q.** For COCC(C)(O)C(=O)Nc1sc2c(c1C(N)=O)CC(C)(C)OC2(C)C (single isomer, unassigned) [Compound 166], which EC50 is on record?
**A.** Its EC50 is 116 nM.

**Q.** How did the EC50 turn out when CCOc1cc(C(=O)Nc2sc3c(c2C(N)=O)CC(C)(C)OC3(C)C)n[nH]1 [Compound 54, 5-Ethoxy-1H-pyrazole-3-carboxylic acid (3-carbamoyl-5,5,7,7-tetramethyl-4,7-dihydro-5H-thieno[2,3-c]pyran-2-yl)-amide] was run?
**A.** Its EC50 is 8.51 nM.

**Q.** How did the EC50 turn out when CC(C)(O)CC(=O)Nc1sc2c(c1C(N)=O)CC(C)(C)OC2(C)C [Compound 56, 2-[(3-hydroxy-3-methyl-butanoyl)amino]-5,5,7,7-tetramethyl-4H-thieno[2,3-c]pyran-3-carboxamide] was run?
**A.** Its EC50 is 79.3 nM.

**Q.** How did the EC50 turn out when CC(O)CC(=O)Nc1sc2c(c1C(N)=O)CC(C)(C)OC2(C)C (stereo not drawn) [Compound 58, 2-(3-hydroxybutanoylamino)-5,5,7,7-tetramethyl-4H-thieno[2,3-c]pyran-3-carboxamide] was run?
**A.** The EC50 was 178 nM.

**Q.** How did the EC50 turn out when CC1(C)Cc2c(sc(NC(=O)[C@H]3C[C@@H]3CO)c2C(N)=O)C(C)(C)O1 [Compound 83, 2-[[(1S,2S)-2-(hydroxymethyl)cyclopropanecarbonyl]amino]-5,5,7,7-tetramethyl-4H-thieno[2,3-c]pyran-3-carboxamide] was run?
**A.** Its EC50 is 644 nM.

**Q.** CCC(CO)C(=O)Nc1sc2c(c1C(N)=O)CC(C)(C)OC2(C)C (stereo not drawn) [Compound 86, 2-[2-(hydroxymethyl)butanoylamino]-5,5,7,7-tetramethyl-4H-thieno[2,3-c]pyran-3-carboxamide] was tested. Which EC50 did it give?
**A.** The EC50 was 160 nM.

**Q.** How did the EC50 turn out when CC1(C)Cc2c(sc(NC(=O)C(CO)C(C)(C)C)c2C(N)=O)C(C)(C)O1 (stereo not drawn) [Compound 89, 2-[[2-(hydroxymethyl)-3,3-dimethyl-butanoyl]amino]-5,5,7,7-tetramethyl-4H-thieno[2,3-c]pyran-3-carboxamide] was run?
**A.** The EC50 was 313 nM.

**Q.** With CC1(C)Cc2c(sc(NC(=O)C3(CO)CC3(C)C)c2C(N)=O)C(C)(C)O1 (stereo not drawn) [Compound 91, 2-[[1-(hydroxymethyl)-2,2-dimethyl-cyclopropanecarbonyl]amino]-5,5,7,7-tetramethyl-4H-thieno[2,3-c]pyran-3-carboxamide] as the molecule, how does the EC50 read?
**A.** Its EC50 is 64.1 nM.

**Q.** With CC1(C)Cc2c(sc(NC(=O)C3CCC(=O)N3)c2C(N)=O)C(C)(C)O1 (stereo not drawn) [Compound 107, N-(3-carbamoyl-5,5,7,7-tetramethyl-4H-thieno[2,3-c]pyran-2-yl)-5-oxo-pyrrolidine-2-carboxamide] as the molecule, how does the EC50 read?
**A.** Its EC50 is 387 nM.

**Q.** For Cn1ncc(C(=O)Nc2sc3c(c2C(N)=O)CC(C)(C)OC3(C)C)c1C(F)F [Compound 118, N-(3-carbamoyl-5,5,7,7-tetramethyl-4H-thieno[2,3-c]pyran-2-yl)-5-(difluoromethyl)-1-methyl-pyrazole-4-carboxamide], which EC50 is on record?
**A.** Its EC50 is 303 nM.

**Q.** With Cc1csc(C(=O)Nc2sc3c(c2C(N)=O)CC(C)(C)OC3(C)C)n1 [Compound 131, N-(3-carbamoyl-5,5,7,7-tetramethyl-4H-thieno[2,3-c]pyran-2-yl)-4-methyl-thiazole-2-carboxamide] as the molecule, how does the EC50 read?
**A.** The EC50 was 168 nM.

**Q.** For CC1(C)Cc2c(sc(NC(=O)c3cnccn3)c2C(N)=O)C(C)(C)O1 [Compound 138, N-(3-carbamoyl-5,5,7,7-tetramethyl-4H-thieno[2,3-c]pyran-2-yl)pyrazine-2-carboxamide], which EC50 is on record?
**A.** Its EC50 is 52.2 nM.

**Q.** Which EC50 does the source give for Cc1noc(C)c1C(=O)Nc1sc2c(c1C(N)=O)CC(C)(C)OC2(C)C [Compound 140, N-(3-carbamoyl-5,5,7,7-tetramethyl-4H-thieno[2,3-c]pyran-2-yl)-3,5-dimethyl-isoxazole-4-carboxamide] here?
**A.** Its EC50 is 144 nM.

**Q.** Which EC50 does the source give for Cc1ccn2c(=O)c(C(=O)Nc3sc4c(c3C(N)=O)CC(C)(C)OC4(C)C)cnc2c1 [Compound 144, N-(3-carbamoyl-5,5,7,7-tetramethyl-4H-thieno[2,3-c]pyran-2-yl)-8-methyl-4-oxo-pyrido[1,2-a]pyrimidine-3-carboxamide] here?
**A.** The EC50 was 472 nM.

**Q.** Which EC50 does the source give for CC1(C)Cc2c(sc(NC(=O)c3cnc4c(c3)OCCO4)c2C(N)=O)C(C)(C)O1 [Compound 145, N-(3-carbamoyl-5,5,7,7-tetramethyl-4H-thieno[2,3-c]pyran-2-yl)-2,3-dihydro-[1,4]dioxino[2,3-b]pyridine-7-carboxamide] here?
**A.** Its EC50 is 154 nM.

**Q.** Which EC50 does the source give for Cc1oncc1C(=O)Nc1sc2c(c1C(N)=O)CC(C)(C)OC2(C)C [Compound 146, N-(3-carbamoyl-5,5,7,7-tetramethyl-4H-thieno[2,3-c]pyran-2-yl)-5-methyl-isoxazole-4-carboxamide] here?
**A.** Its EC50 is 202 nM.

**Q.** With CC1(C)Cc2c(sc(NC(=O)C3(C)COC3)c2C(N)=O)C(C)(C)O1 [Compound 147, 5,5,7,7-tetramethyl-2-[(3-methyloxetane-3-carbonyl)amino]-4H-thieno[2,3-c]pyran-3-carboxamide] as the molecule, how does the EC50 read?
**A.** The EC50 was 169 nM.

**Q.** How did the EC50 turn out when Cc1cc2nnc(C(=O)Nc3sc4c(c3C(N)=O)CC(C)(C)OC4(C)C)c(C)n2n1 [Compound 149, N-(3-carbamoyl-5,5,7,7-tetramethyl-4H-thieno[2,3-c]pyran-2-yl)-4,7-dimethyl-pyrazolo[5,1-c][1,2,4]triazine-3-carboxamide] was run?
**A.** Its EC50 is 346 nM.

**Q.** For C[C@H](O)C(=O)Nc1sc2c(c1C(N)=O)CC(C)(C)OC2(C)C [Compound 153, 2-[[(2S)-2-hydroxypropanoyl]amino]-5,5,7,7-tetramethyl-4H-thieno[2,3-c]pyran-3-carboxamide], which EC50 is on record?
**A.** The EC50 was 33.9 nM.

**Q.** Which EC50 does the source give for COCC(C)(O)C(=O)Nc1sc2c(c1C(N)=O)CC(C)(C)OC2(C)C (stereo not drawn) [Compound 155, 2-[(2-hydroxy-3-methoxy-2-methyl-propanoyl)amino]-5,5,7,7-tetramethyl-4H-thieno[2,3-c]pyran-3-carboxamide] here?
**A.** The EC50 was 71.5 nM.

**Q.** Which EC50 does the source give for CC1(C)Cc2c(sc(NC(=O)c3n[nH]c4ncccc34)c2C(N)=O)C(C)(C)O1 [Compound 157, N-(3-carbamoyl-5,5,7,7-tetramethyl-4H-thieno[2,3-c]pyran-2-yl)-1H-pyrazolo[3,4-b]pyridine-3-carboxamide] here?
**A.** The EC50 was 33.1 nM.

**Q.** CC1(C)Cc2c(sc(NC(=O)C3CCOCC3)c2C(N)=O)C(C)(C)O1 [Compound 158, 5,5,7,7-tetramethyl-2-(tetrahydropyran-4-carbonylamino)-4H-thieno[2,3-c]pyran-3-carboxamide] was tested. Which EC50 did it give?
**A.** Its EC50 is 301 nM.

**Q.** With COCC(=O)Nc1sc2c(c1C(N)=O)CC(C)(C)OC2(C)C [Compound 160, 2-[(2-methoxyacetyl)amino]-5,5,7,7-tetramethyl-4H-thieno[2,3-c]pyran-3-carboxamide] as the molecule, how does the EC50 read?
**A.** The EC50 was 641 nM.

**Q.** How did the EC50 turn out when CC1(C)Cc2c(sc(NC(=O)C3CCCO3)c2C(N)=O)C(C)(C)O1 (stereo not drawn) [Compound 162, 5,5,7,7-tetramethyl-2-(tetrahydrofuran-2-carbonylamino)-4H-thieno[2,3-c]pyran-3-carboxamide] was run?
**A.** The EC50 was 602 nM.
